Test results as given in PubChem BioAssay AID179 (DTP/NCI, 2004).
“And” between values parts separate entries of the source, which are not always exact repeats. Equal entries are not always repeated. The source made the active and inactive calls.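 The calls were made as follows: active = compounds giving half or more protection of infected cells from virus-caused growth loss, again on retest; inactive = the rest.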 Where a SMILES comes first, the peptide text is derived from it.

Tested on: CEM cells HIV-1 protection, formazan growth assay
Assay: NCI AIDS Antiviral Assay
Details: for IC50: measured here: growth of uninfected CEM cells
In short: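 Human CEM cells, uninfected and HIV-1-infected, received five drug concentrations, and growth was read by soluble formazan assay. Compounds giving at least 50% protection were retested; reproducible 100% protection defined confirmed active.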

Compound O=C1Cn2c(cc(=O)c3ccccc32)O1 has an EC50 greater than 67.6 µM and an IC50 greater than 67.6 µM.
For CC1=CC[P+](Cc2ccccc2)(c2ccccc2)C1 (stereo not given), the EC50 was greater than 724 µM and the IC50 was 40.7 µM.
In the case of Cc1cc(=O)c2c([nH]1)NS(=O)(=O)NC2=O, the EC50 is reported as greater than 1480 µM and the IC50 is reported as greater than 1480 µM.
In the case of CC12CC(c3ccccc3N1)C1CC2(C)Nc2ccccc21, the EC50 is reported as greater than 64.6 µM and the IC50 is reported as greater than 64.6 µM.
Work on CC(=O)NNc1nc(C)c(C(=O)NNC(=O)C(=O)Nc2ccc(Cl)c([N+](=O)[O-])c2)s1 yielded an EC50 greater than 288 µM and an IC50 of 107 µM.
Cc1ccc(N(C)S(=O)(=O)c2ccccc2)cc1 gave an EC50 greater than 145 µM and an IC50 of 67.6 µM.
Nc1cccc(N=Nc2c(S(=O)(=O)O)cc3cc(NC(=O)Nc4ccc5c(O)c(N=Nc6cccc(N)c6)c(S(=O)(=O)O)cc5c4)ccc3c2O)c1 showed an EC50 of 13.5 µM and an IC50 greater than 100 µM.
COc1cc2nncc(Cl)c2cc1OC gave an EC50 greater than 95.5 µM and an IC50 of 79.4 µM.
O=C(NNC(=S)Nc1cccc(Cl)c1)c1cc(-c2ccccc2)nc2ccccc12 showed an EC50 greater than 200 µM and an IC50 of 12 µM.
Work on CC(=O)NC1C(OCc2ccccc2)OC(CO)C(O)C1OCC(=O)N1CCCC1C(=O)N[C@@H](CCC(=O)NCCCCNc1c2ccccc2nc2cccc([N+](=O)[O-])c12)C(N)=O (stereo not given in full) yielded an EC50 greater than 100 µM and an IC50 of 15.8 µM.
In the case of CS(=O)(=O)OCCCNCCCOS(C)(=O)=O, the EC50 is reported as greater than 759 µM and the IC50 is reported as 562 µM.
Work on CC12CCC(=O)N1[C@@H](c1ccccc1)[C@@H](c1ccccc1)O2 (stereo not given in full) yielded an EC50 greater than 234 µM and an IC50 greater than 234 µM.
O=c1[nH]nc(-c2cccc([N+](=O)[O-])c2)[nH]1 gave an EC50 greater than 200 µM and an IC50 of 148 µM.
CCCCCOCCCCCCCC(=O)OCC1OC(n2cc(C)c(=O)[nH]c2=O)CC1N=[N+]=[N-] (stereo not given) was tested, and the outcome was “active”.
Work on CCC(=O)CCCC=C(c1cc(Cl)c(OC)c(C(=O)CC)c1)c1cc(Cl)c(OC)c(C(=O)CC)c1 yielded an EC50 greater than 200 µM and an IC50 of 6.31 µM.
CCC(CC)(CO)CNc1cc(Cl)nc(N)n1 showed an EC50 greater than 200 µM and an IC50 greater than 100 µM.
With COc1cccc(C(=O)C2C(=O)N(C)CCc3ccccc32)c1OC (stereo not given) the EC50 was greater than 148 µM and the IC50 was greater than 148 µM.
N#Cc1nc(Cc2cccs2)oc1N showed an EC50 greater than 200 µM and an IC50 greater than 200 µM.
With COc1ccc(CNc2cnc3cc(N)ccc3n2)cc1OC the EC50 was greater than 115 µM and the IC50 was greater than 115 µM.
Compound COc1ccc(/C(CC2OC(=O)c3ccccc32)=N\NC(N)=O)cc1 (stereo not given) has an EC50 greater than 339 µM and an IC50 greater than 339 µM.
For CC(C)/C(Cl)=N/OC(=O)Nc1ccc(Br)cc1, the EC50 was greater than 20 µM and the IC50 was 3.72 µM.
Work on O=C(O)c1cc(N=Nc2cccc([N+](=O)[O-])c2)ccc1O yielded an EC50 greater than 200 µM and an IC50 of 67.6 µM.
ON/N=C/c1cc2c(cc1Br)OCO2 was tested, and the EC50 was greater than 263 µM and the IC50 was 186 µM.
For O=[N+]([O-])c1cc2c(c3nonc13)OCCCCO2, the EC50 was greater than 200 µM and the IC50 was 1.15 µM.
Compound NC(=O)CC[C@@H]1NC[C@H](C(O)C(O)C(O)CO)OC1=O (stereo not given in full) has an EC50 greater than 851 µM and an IC50 greater than 851 µM.
Compound C/C=C/C=C\C=C/C(O)CC(OP(=O)(O)O)C(C)(O)/C=C/C1CC=CC(=O)O1 (stereo not given) has an EC50 greater than 575 µM and an IC50 of 33.1 µM.
Compound Nc1c(C(=O)O)nnc2cc(Cl)c(Cl)cc12 has an EC50 greater than 200 µM and an IC50 greater than 200 µM.
For Cn1nc(-c2ccccc2)c(C(=O)/C=C/c2ccc(F)cc2)c(N2CCCCC2)c1=O, the EC50 was greater than 18.6 µM and the IC50 was greater than 18.6 µM.
Compound NC(N)=NCC[C@H](NC(=O)OCCCCCn1ccc(=O)[nH]c1=O)C(=O)O has an EC50 greater than 200 µM and an IC50 greater than 200 µM.
O=C(NCCCNC(=O)c1ccc2c(O)c(O)ccc2c1)c1ccc2c(O)c(O)ccc2c1 showed an EC50 greater than 151 µM and an IC50 of 15.5 µM.
For C/C=C(\CC)C(C#N)O[Si](C)(C)C (stereo not given), the outcome was “inactive”.
Work on COC(=O)C1(CCCCl)CCCN1C(=O)OC(C)(C)C (stereo not given) yielded an EC50 greater than 200 µM and an IC50 greater than 200 µM.
Compound Cc1ccc(/C=C2\CCS(=O)(=O)c3ccccc3C2=O)cc1 has an EC50 greater than 200 µM and an IC50 of 9.77 µM.
Compound O=c1c2cncnc2sc2nccn12 has an EC50 greater than 200 µM and an IC50 greater than 200 µM.
N#Cc1ccc(C(C2C(=O)NC(=O)NC2=O)C2C(=O)NC(=O)NC2=O)cc1 showed an EC50 greater than 70.8 µM and an IC50 greater than 70.8 µM.
Work on CCOC(=O)c1ccc(CS(=O)(=O)c2ccc(N)cc2)c([N+](=O)[O-])c1 yielded an EC50 greater than 100 µM and an IC50 greater than 100 µM.
In the case of CCOc1ccc(-n2nc(C(=O)O)cc(Cl)c2=O)cc1, the EC50 is reported as greater than 427 µM and the IC50 is reported as 18.2 µM.
With CCCCCC1=C(c2ccc(OC)c(S(=O)(=O)N(C)C)c2)c2cc(S(=O)(=O)N(C)C)c(OC)cc2S1(=O)=O the EC50 was greater than 32.4 µM and the IC50 was greater than 32.4 µM.
CN(C)c1ccc(/C=C2/N=C(c3ccccc3)OC2=O)cc1 showed an EC50 greater than 200 µM and an IC50 of 141 µM.
COc1cccc2cc(C(=O)Nc3ccccc3)c(=N)oc12 was tested, and the EC50 was greater than 200 µM and the IC50 was greater than 200 µM.
Compound C/C(=N\NS(=O)(=O)c1ccc(C)cc1)C(CN(C)C)C(c1ccccc1)c1c(O)c2ccccc2oc1=O (stereo not given) has an EC50 greater than 72.4 µM and an IC50 greater than 72.4 µM.
In the case of C[C@]12CCNC(=O)C=C1CC[C@@H]1C2CC[C@@]2(C)C1CC[C@@H]2OC(=O)COc1ccc(N(CCCl)CCCl)cc1 (stereo not given in full), the outcome is reported as “inactive”.
Compound NC(CO)C(=O)N1CCCC1C(=O)NC(Cc1ccc(O)cc1)C(=O)N1CCCC1C(=O)NC(CO)C(=O)O (stereo not given) (H-SPYPS-OH; configuration not given here) has an EC50 greater than 112 µM and an IC50 greater than 112 µM.
In the case of ClC1(c2ccccc2)c2ccc(Br)cc2-c2cc(Br)ccc21, the EC50 is reported as greater than 200 µM and the IC50 is reported as 5.75 µM.
CCOC(=O)C1CC(C(=O)OCC)c2nc3ccccc3nc21 (stereo not given) was tested, and the EC50 was greater than 8.71 µM and the IC50 was greater than 8.71 µM.
In the case of O=C(O)c1cc(Cc2cc(Cl)c(O)c(C(=O)O)c2)cc(Cl)c1O, the EC50 is reported as greater than 501 µM and the IC50 is reported as 347 µM and 204 µM.
For Cc1cccc(N=N/C(=N\NC(=O)c2cc(Cl)ccc2O)c2ccc(N(CCC#N)CCC#N)cc2C)c1, the EC50 was greater than 200 µM and the IC50 was 30.9 µM.
NC(CSS(=O)(=O)O)=NCc1ccccc1 showed an EC50 greater than 200 µM and an IC50 greater than 200 µM.
CC1NC(=O)C2=C1C(=O)NC(=O)C2 (stereo not given) showed an EC50 of 40.7 µM and an IC50 of 195 µM.
Compound O=C1CC(=O)N(C=C2C(=O)NC(=O)NC2=O)C(=S)N1 has an EC50 greater than 200 µM and an IC50 greater than 200 µM.
CCOC(=O)C(=CNC(=S)c1cccnc1)C(=O)OCC showed an EC50 greater than 200 µM and an IC50 of 17.8 µM.
O=C(O)/C(Cl)=C(\Cl)Nc1cccc(C(F)(F)F)c1 was tested, and the outcome was “inactive”.
With C=C1c2c(Cl)ccc(O)c2C(O)=C2C(=O)C3(O)C(O)=C(C(N)=O)C(=O)C(N(C)C)C3C(O)C12 (stereo not given) the EC50 was greater than 200 µM and the IC50 was 11 µM.
CNC(=O)NCCCCC(NC(C)=O)C(=O)NCc1ccccc1 (stereo not given) gave an EC50 greater than 741 µM and an IC50 greater than 741 µM.
With Cc1nc(Nc2ccccc2[N+](=O)[O-])sc1C(=O)CC(=O)C(=O)Nc1c(C(C)C)cccc1C(C)C the EC50 was greater than 200 µM and the IC50 was greater than 200 µM.
In the case of O=C(CCc1cccc(O)c1)NCCc1ccc(O)cc1, the EC50 is reported as 123 µM and the IC50 is reported as greater than 200 µM.
O=C1C[C@@]23CCC4(CC2CCC[C@H]3O1)OCCO4 (stereo not given in full) was tested, and the outcome was “inactive”.
For CC(=O)OCC1OC(SC2=NC(=O)CS2)C(OC(C)=O)C(OC(C)=O)C1OC(C)=O (stereo not given), the EC50 was greater than 200 µM, the outcome was “inactive” and the IC50 was 74.1 µM.
COC(=O)CC(C(C(=O)OCc1ccccc1)C(C)O)N1C(=O)OCC1c1ccccc1 (stereo not given) gave an EC50 greater than 200 µM and an IC50 of 123 µM.
O=C1CC2(CCNCC2)C(=O)N1N1CCOCC1 showed an EC50 greater than 200 µM and an IC50 greater than 200 µM.
CCC1(CCCC=C(c2cc(Cl)c(OC)c(CO)c2)c2cc(Cl)c(OC)c(CO)c2)OCCO1 gave an EC50 greater than 200 µM and an IC50 of 11.7 µM.
O=C([O][Bi]([c]1ccccc1)[c]1ccccc1)C(F)(F)F gave an EC50 greater than 20 µM and an IC50 of 15.1 µM.
